The record followed here is patent US20230286960A1, “ALLOSTERIC CHROMENONE INHIBITORS OF PHOSPHOINOSITIDE 3-KINASE (PI3K) FOR THE TREATMENT OF DISEASE” (Petra Pharma Corporation, priority 2020, published 2023).

Chain of human full length PIK3CA H1047R mutant (p110α/p85α) (P42336 whole entry H1047R): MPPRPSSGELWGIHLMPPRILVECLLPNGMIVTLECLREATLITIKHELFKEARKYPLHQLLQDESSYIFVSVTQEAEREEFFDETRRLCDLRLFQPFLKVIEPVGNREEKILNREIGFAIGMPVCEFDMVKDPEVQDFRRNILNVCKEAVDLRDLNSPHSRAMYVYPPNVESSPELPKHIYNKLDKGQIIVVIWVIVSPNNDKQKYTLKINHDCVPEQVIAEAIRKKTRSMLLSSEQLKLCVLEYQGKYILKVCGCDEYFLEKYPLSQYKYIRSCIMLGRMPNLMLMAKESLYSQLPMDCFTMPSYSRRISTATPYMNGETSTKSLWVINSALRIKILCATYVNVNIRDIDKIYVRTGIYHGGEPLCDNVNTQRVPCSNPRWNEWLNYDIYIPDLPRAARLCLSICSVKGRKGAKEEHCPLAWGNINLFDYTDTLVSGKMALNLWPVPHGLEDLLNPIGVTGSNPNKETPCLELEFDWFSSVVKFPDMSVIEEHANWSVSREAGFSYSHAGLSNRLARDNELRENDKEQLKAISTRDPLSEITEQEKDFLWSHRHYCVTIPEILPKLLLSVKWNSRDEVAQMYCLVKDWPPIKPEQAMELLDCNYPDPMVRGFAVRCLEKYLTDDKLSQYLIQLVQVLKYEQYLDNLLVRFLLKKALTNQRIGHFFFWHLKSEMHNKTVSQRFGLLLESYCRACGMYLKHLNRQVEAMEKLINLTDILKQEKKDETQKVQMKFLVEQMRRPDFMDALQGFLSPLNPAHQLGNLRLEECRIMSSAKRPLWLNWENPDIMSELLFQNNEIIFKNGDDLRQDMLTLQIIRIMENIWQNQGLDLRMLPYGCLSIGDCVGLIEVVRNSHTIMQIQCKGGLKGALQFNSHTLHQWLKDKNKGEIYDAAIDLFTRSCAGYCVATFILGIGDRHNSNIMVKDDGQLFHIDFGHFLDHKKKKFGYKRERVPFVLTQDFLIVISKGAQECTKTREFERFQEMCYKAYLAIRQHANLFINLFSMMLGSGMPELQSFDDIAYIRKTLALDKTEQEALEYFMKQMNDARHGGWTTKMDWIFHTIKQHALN
Chain of human full length PIK3CA H1047R mutant (p110α/p85α) (P27986 whole entry partner): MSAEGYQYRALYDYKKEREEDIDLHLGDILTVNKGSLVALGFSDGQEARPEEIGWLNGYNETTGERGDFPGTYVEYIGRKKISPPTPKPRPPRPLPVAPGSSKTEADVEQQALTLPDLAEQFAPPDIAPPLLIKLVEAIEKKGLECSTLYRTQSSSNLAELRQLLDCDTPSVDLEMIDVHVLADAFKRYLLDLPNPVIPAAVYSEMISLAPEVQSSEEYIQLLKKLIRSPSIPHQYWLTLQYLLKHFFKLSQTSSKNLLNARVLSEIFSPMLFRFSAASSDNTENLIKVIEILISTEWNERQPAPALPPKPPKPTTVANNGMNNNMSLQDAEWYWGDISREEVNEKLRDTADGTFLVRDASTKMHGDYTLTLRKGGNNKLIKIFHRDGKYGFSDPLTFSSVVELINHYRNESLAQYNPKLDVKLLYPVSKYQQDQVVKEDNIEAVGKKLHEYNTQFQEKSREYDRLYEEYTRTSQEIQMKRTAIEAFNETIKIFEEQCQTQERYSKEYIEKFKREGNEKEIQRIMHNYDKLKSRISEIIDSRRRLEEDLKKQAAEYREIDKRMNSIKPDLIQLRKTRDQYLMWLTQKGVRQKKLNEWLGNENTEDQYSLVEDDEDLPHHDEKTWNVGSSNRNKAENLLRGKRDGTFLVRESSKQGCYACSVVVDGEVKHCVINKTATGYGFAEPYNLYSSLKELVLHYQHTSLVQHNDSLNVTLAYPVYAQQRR
Chain of human full length PIK3CA wild-type (p110α/p85α) (P42336 whole entry): as the sequence (P42336 whole entry H1047R) above, with R1047H counted along it
Chain of human full length PIK3CA wild-type (p110α/p85α) (P27986 whole entry partner): as the sequence (P27986 whole entry partner) above

In the first test the target is human full length PIK3CA H1047R mutant (p110α/p85α) (Homo sapiens (Human), UniProt P42336, H1047R). In words: PI3K-alpha kinase (PIK3CA) activity, H1047R mutant, Transcreener ADP2 FI assay. The note with it: PI3K-α (PIK3CA) biochemical. Here is the method:
(§1) PI3K-Alpha Kinase (PIK3CA) Activity, Wild-Type and H1047R Mutant and Determining IC50 Values for Inhibitors
(§2) Recombinant, catalytically active human full length PIK3KA Wild-type and H1047R mutant were purchased as 1:1 complex of N-terminal 6× his tagged p110 ? (catalytic) and untagged p85 ? (regulatory subunit) from EMD Millipore Sigma (cat. no. 14-602M and 14-792M, respectively). The enzyme stocks were diluted to 5× stocks in buffer (20 mM HEPES pH 7.4, 100 mM NaCl, 0.5 mM EGTA, 0.01% triton-x-100) just before use. PIP2diC8 (Avanti Polar Lipids Inc., cat. no. 850185) or phosphoinositol-4,5-bisphosphate with phosphoserine (PIP2:PS) membrane (Thermo Fisher Scientific, cat. no. PV5100) was used as lipid substrates. PIP2diC8 lyophilized powder and PIP2:PS (1:19) membrane stock (1 mM in PIP2) were separately dissolved in milliQ water to a concentration of 250 uM and stored in −20° C. 10 mM stocks of compounds were serially diluted (3×) in neat DMSO and stored in a dessicator at room temperature. 5× compound stocks in 25% DMSO were prepared fresh from neat DMSO stocks.
(§3) Wild-type (WT) and H1047R mutant protein, along with buffer components (except ATP), were incubated with or without compound at 27° C. for 1 h. After incubation, the reaction was initiated by the addition of 5 uL of 125 uM ATP. A typical assay mixture (25 uL) comprised 40 mM HEPES buffer, pH 7.4, 25 mM MgCl2, 0.01% v/v triton-X-100, 5% v/v DMSO, 20 mM NaCl, 1-5 nM wt or H1047R, 25 uM ATP, and 50 uM PIP2diC8 or PIP2 in membrane. The reaction was allowed to proceed until about […] (2.5 uM ADP) after which time, 10 uL of reaction mixture was quenched with 25 uL of transcreener reagent (Transcreener ADP2 FI assay kit, BellBrook labs, Cat. No. 3013). The contents were incubated at rt for 1 h and fluorescence was measured using a plate reader (Paradigm, Molecular Devices). The same assay was also run at pH 6.0 or 6.4 using MOPS buffer (Fisher BioReagents, CAS 1132-61-2). A calibration curve was generated under identical buffer conditions with varying ADP amounts. Using that, the observed fluorescence was converted to uM ADP. A plot between [ADP] and log[I] yielded the dose-response curves that enabled the calculation of IC50s.
The IC50 is the midpoint of a concentration-inhibition curve. The low end stands for inhibition by little substance, the high end for a need for much substance. As for `Cc1cc([C@@H](C)Nc2ccccc2C(=O)O)c2oc(N3CC4(CCC4(F)F)C3)c(C)c(=O)c2c1` [Example 289, 2-[[(1R)-1-[2-(7,7-Difluoro-2-azaspiro[3.3]heptan-2-yl)-3,6-dimethyl-4-oxo-chromen-8-yl]ethyl]amino]benzoic acid], the IC50 is below 500 nM. The same measure, in the same setting: the figure for `Cc1cc(C(C)Nc2ccc(Cl)nc2C(=O)O)c2oc(N3Cc4ccc5c(c4C3)OCO5)cc(=O)c2c1` (stereo not shown) [Example 299, 6-Chloro-3-[1-[2-(6,8-dihydro-[1,3]dioxolo[4,5-e]isoindol-7-yl)-6-methyl-4-oxo-chromen-8-yl]ethylamino]pyridine-2-carboxylic acid] is below 500 nM; for `Cc1cc(C(C)Nc2ccc(Cl)nc2C(=O)O)c2oc(N3Cc4ccc(F)cc4C3)cc(=O)c2c1` (stereo not shown) [Example 297, 6-Chloro-3-[1-[2-(5-fluoroisoindolin-2-yl)-6-methyl-4-oxo-chromen-8-yl]ethylamino]pyridine-2-carboxylic acid] it is below 500 nM. Compound `CONC(=O)c1ccccc1NC(C)c1cc(C)cc2c(=O)cc(N3CCC(C)(C)CC3)oc12` (stereo not shown) [Example 19, 2-[1-[2-(4,4-Dimethyl-1-piperidyl)-6-methyl-4-oxo-chromen-8-yl]ethylamino]-N-methoxy-benzamide] showed an IC50 below 500 nM. Same read-out and setting: then `Cc1cc([C@@H](C)Nc2ccccc2C(=O)O)c2oc(N3CCC(C#N)(c4ccccc4)CC3)c(C)c(=O)c2c1` [Example 288, 2-[[(1R)-1-[2-(4-Cyano-4-phenyl-1-piperidyl)-3,6-dimethyl-4-oxo-chromen-8-yl]ethyl]amino]benzoic acid], with below 500 nM; and `Cc1cc(C(C)Nc2ccccc2C(=O)O)c2oc(N3CCn4cccc4C3)cc(=O)c2c1` (stereo not shown) [Example 171, 2-[1-[2-(3,4-Dihydro-1H-pyrrolo[1,2-a]pyrazin-2-yl)-6-methyl-4-oxo-chromen-8-yl]ethylamino]benzoic acid], with below 500 nM; and `Cc1cc(C(C)Nc2ccccc2C(=O)O)c2oc(N3CC4(CCCCC4)C3)cc(=O)c2c1` (stereo not shown) [Example 88, 2-[1-[2-(2-Azaspiro[3.5]nonan-2-yl)-6-methyl-4-oxo-chromen-8-yl]ethylamino]benzoic acid], with below 500 nM.

Consider `CCc1c(N2CCC(C)(C)CC2)oc2c(C(C)Nc3ccccc3C(=O)O)cc(C)cc2c1=O` (stereo not shown) [Example 55, 2-[1-[2-(4,4-dimethyl-1-piperidyl)-3-ethyl-6-methyl-4-oxo-chromen-8-yl]ethylamino]benzoic acid], for which the IC50 is below 500 nM. On the same count and under the same terms, the figure for `Cc1cc(C(C)Nc2ccccc2C(=O)O)c2oc(N3CCc4ccccc4C3)cc(=O)c2c1` (stereo not shown) [Example 233, 2-[1-[2-(3,4-Dihydro-1H-isoquinolin-2-yl)-6-methyl-4-oxo-chromen-8-yl]ethylamino]benzoic acid] is below 500 nM. On the same count and under the same terms, the figure for `Cc1cc(C(C)Nc2ccccc2C(=O)O)c2oc(N3CCCC(C)(C)C3)cc(=O)c2c1` (stereo not shown) [Example 65, 2-[1-[2-(3,3-Dimethyl-1-piperidyl)-6-methyl-4-oxo-chromen-8-yl]ethylamino]benzoic acid] is below 500 nM; for `CC(Nc1ccccc1C(=O)O)c1cc(F)cc2c(=O)cc(N3CCC(F)(F)CC3)oc12` (stereo not shown) [Example 399] it is below 500 nM; for `Cc1cc([C@@H](C)Nc2ccccc2C(=O)O)c2oc(N3CCCCC3)cc(=O)c2c1` [Example 376, 2-[[(1R)-1-[6-Methyl-4-oxo-2-(1-piperidyl)chromen-8-yl]ethyl]amino]benzoic acid] it is below 500 nM.

`CC(Nc1ccccc1C(=O)O)c1cc(C(F)(F)F)cc2c(=O)cc(N3CCC(F)(F)CC3)oc12` (stereo not shown) [Example 396, 2-[1-[2-(4,4-Difluoro-1-piperidyl)-4-oxo-6-(trifluoromethyl)chromen-8-yl]ethylamino]benzoic acid 2,2,2-trifluoroacetic acid] displayed an IC50 below 500 nM. As for `Cc1cc(C(C)Nc2sc(Cl)nc2C(=O)O)c2oc(N3Cc4ccccc4C3)cc(=O)c2c1` (stereo not shown) [Example 245, 2-Chloro-5-[1-(2-isoindolin-2-yl-6-methyl-4-oxo-chromen-8-yl)ethylamino]thiazole-4-carboxylic acid 2,2,2-trifluoroacetic acid], the IC50 was below 500 nM. On the same count and under the same terms, then `Cc1cc(C(C)Nc2ccccc2C(=O)O)c2oc(N3CC4CC(C4)C3)cc(=O)c2c1` (stereo not shown) [Example 177, 2-[1-[2-(3-Azabicyclo[3.1.1]heptan-3-yl)-6-methyl-4-oxo-chromen-8-yl]ethylamino]benzoic acid 2,2,2-trifluoroacetic acid], with below 500 nM; and `CC(Nc1ccccc1C(=O)O)c1cc(F)cc2c(=O)cc(N3CCC4(CC3)CC4)oc12` (stereo not shown) [Example 398, 2-[1-[2-(6-Azaspiro[2.5]octan-6-yl)-6-fluoro-4-oxo-chromen-8-yl]ethylamino]benzoic acid 2,2,2-trifluoroacetic acid], with below 500 nM. For `Cc1cc(C(C)Nc2ccccc2C(=O)O)c2oc(N3Cc4ccc(F)cc4C3)cc(=O)c2c1` (stereo not shown) [Example 105, 2-[1-[2-(5-Fluoroisoindolin-2-yl)-6-methyl-4-oxo-chromen-8-yl]ethylamino]benzoic acid], the IC50 was below 500 nM. On the same count and under the same terms, then `Cc1cc(C(C)Nc2ccccc2-c2nnn[nH]2)c2oc(N3CCC(C)(C)CC3)cc(=O)c2c1` (stereo not shown) [Example 20, 2-(4,4-Dimethyl-1-piperidyl)-6-methyl-8-[1-[2-(1H-tetrazol-5-yl)anilino]ethyl]chromen-4-one], with below 500 nM; and `Cc1cc(C(C)Nc2ccc(Cl)nc2C(=O)O)c2oc(N3CCC4(CC3)CC4)c(C)c(=O)c2c1` (stereo not shown) [Example 302, 3-[1-[2-(6-Azaspiro[2.5]octan-6-yl)-3,6-dimethyl-4-oxo-chromen-8-yl]ethylamino]-6-chloro-pyridine-2-carboxylic acid], with below 500 nM; and `Cc1cc(C(C)Nc2ccccc2C(=O)O)c2oc(N3CC(C(C)(F)F)C3)cc(=O)c2c1` (stereo not drawn) [Example 189, 2-[1-[2-[3-(1,1-Difluoroethyl)azetidin-l-yl]-6-methyl-4-oxo-chromen-8-yl]ethylamino]benzoic acid 2,2,2-trifluoroacetic acid], with below 500 nM.

The next test has as its target human full length PIK3CA wild-type (p110α/p85α) (Homo sapiens (Human), UniProt P42336). The test is described as follows: PI3K-alpha kinase (PIK3CA) activity, wild-type, Transcreener ADP2 FI assay. The following applies: PI3K-α (PIK3CA) biochemical. The procedure: as §1, §2, §3
`Cc1cc(C(C)Nc2ccccc2C(=O)O)c2oc(N3CC(N(C)C)C3)cc(=O)c2c1` (stereo not shown) [Example 68, 2-[1-[2-[3-(Dimethylamino)azetidin-1-yl]-6-methyl-4-oxo-chromen-8-yl]ethylamino]benzoic acid]: the IC50 is above 10000 nM. Still for that read-out and setting: the figure for `Cc1cc(C(C)Nc2ccccc2C(=O)O)c2oc(N3CC4CCC(C3)O4)cc(=O)c2c1` (stereo not shown) [Example 82, 2-[1-[6-Methyl-2-(8-oxa-3-azabicyclo[3.2.1]octan-3-yl)-4-oxo-chromen-8-yl]ethylamino]benzoic acid] is above 10000 nM; for `Cc1cc(C(C)Nc2ccccc2C(=O)O)c2oc(N3CCS(=O)(=O)CC3)cc(=O)c2c1` (stereo not shown) [Example 117, 2-[1-[2-(1,1-Dioxo-1,4-thiazinan-4-yl)-6-methyl-4-oxo-chromen-8-yl]ethylamino]benzoic acid] it is above 10000 nM; for `Cc1cc(C(C)Nc2ccccc2C(=O)O)c2oc(N3CCn4cnnc4C3)cc(=O)c2c1` (stereo not shown) [Example 163, 2-[1-[2-(6,8-Dihydro-5H-[1,2,4]triazolo[4,3-a]pyrazin-7-yl)-6-methyl-4-oxo-chromen-8-yl]ethylamino]benzoic acid] it is above 10000 nM.

In turn, `Cc1cc(C(C)Nc2ccccc2C(=O)O)c2oc(NC34CC5CC(CC(CO)(C5)C3)C4)cc(=O)c2c1` (stereo not shown) [Example 169] had an IC50 above 10000 nM. For `CNC(=O)C1CCN(c2cc(=O)c3cc(C)cc(C(C)Nc4ccccc4C(=O)O)c3o2)CC1` (stereo not shown) [Example 371, 2-[1-[6-Methyl-2-[4-(methylcarbamoyl)-1-piperidyl]-4-oxo-chromen-8-yl]ethylamino]benzoic acid], the IC50 is above 10000 nM. Take `Cc1cc(C(C)Nc2ccccc2C(=O)O)c2oc(N3CCC4(CC3)CN(C)C(=O)O4)cc(=O)c2c1` (stereo not shown) [Example 380, 2-[1-[6-Methyl-2-(3-methyl-2-oxo-1-oxa-3,8-diazaspiro[4.5]decan-8-yl)-4-oxo-chromen-8-yl]ethylamino]benzoic acid]: the IC50 was above 10000 nM. On the same count and under the same terms, then `Cc1cc(C(C)Nc2ccsc2C(=O)O)c2oc(N3CCC(C)(C)CC3)cc(=O)c2c1` (stereo not shown) [Example 39, 3-[1-[2-(4,4-Dimethyl-1-piperidyl)-6-methyl-4-oxo-chromen-8-yl]ethylamino]thiophene-2-carboxylic acid], with above 10000 nM.
